Experiment: Particle size measurement using a Particle Size Analyzer
Type: physicochemical
Conditions: pretreated vitamin K, before the supercritical process
Description: The pretreated vitamin K has a particle size of 50 to 100 microns. In Examples, the particle sizes of vitamin K nanoparticles prepared by the following conditions were measured using a Particle Size Analyzer. Here, spherical fine particles having a particle size of 50 to 300 nm can be obtained according to the presence or absence of a poly-isopropyl-butyl methacrylate-acrylic acid copolymer as a biodegradable polymer, and the operating conditions.
As shown in the following Table 1, the present Examples represent the operating conditions of the reactor in the step of formation of a spherical structure. The temperature and the pressure of the reactor must be each above 304.2 K and 73.8 bar, which correspond to the critical temperature and the critical pressure of carbon dioxide, respectively. The operating parameters in the reactor are the temperature and the pressure in reactor, the amount of carbon dioxide as a supercritical fluid, and the amount of solution prepared in the preparation step. In Example 1, the solution contains vitamin K of 0.0016 wt % alone without a biodegradable polymer. In Example 2 to 8, the solution contains both of vitamin K of 0.0016 wt % and the poly-isopropyl-butyl methacrylate-acrylic acid copolymer of 0.0014 wt % as a biodegradable polymer. […] In Examples 1 and 3, the change was measured at 313K and 323K by adjusting the reactor temperature. […]

- particle size: 50 to 100 microns
Substance: vitamin K [pretreated vitamin K]
